In this test the target is PSMA (Homo sapiens, UniProt Q04609). Put plainly: PSMA binding, fluorescence polarization assay. Particulars: as shown in Table 1. Here is the method:
PSMA binding was measured using the fluorescence polarization assay methodology described in Shen et al (2013) PLOS ONE 8(7), […] and PSMA enzyme inhibition was measured using the methodology described in WO 2009/070302.
The peptide ligands of the invention were tested in the above mentioned PSMA binding and enzyme inhibition assays and the results are shown in Table 1: […]
Chain of PSMA (Q04609 whole entry): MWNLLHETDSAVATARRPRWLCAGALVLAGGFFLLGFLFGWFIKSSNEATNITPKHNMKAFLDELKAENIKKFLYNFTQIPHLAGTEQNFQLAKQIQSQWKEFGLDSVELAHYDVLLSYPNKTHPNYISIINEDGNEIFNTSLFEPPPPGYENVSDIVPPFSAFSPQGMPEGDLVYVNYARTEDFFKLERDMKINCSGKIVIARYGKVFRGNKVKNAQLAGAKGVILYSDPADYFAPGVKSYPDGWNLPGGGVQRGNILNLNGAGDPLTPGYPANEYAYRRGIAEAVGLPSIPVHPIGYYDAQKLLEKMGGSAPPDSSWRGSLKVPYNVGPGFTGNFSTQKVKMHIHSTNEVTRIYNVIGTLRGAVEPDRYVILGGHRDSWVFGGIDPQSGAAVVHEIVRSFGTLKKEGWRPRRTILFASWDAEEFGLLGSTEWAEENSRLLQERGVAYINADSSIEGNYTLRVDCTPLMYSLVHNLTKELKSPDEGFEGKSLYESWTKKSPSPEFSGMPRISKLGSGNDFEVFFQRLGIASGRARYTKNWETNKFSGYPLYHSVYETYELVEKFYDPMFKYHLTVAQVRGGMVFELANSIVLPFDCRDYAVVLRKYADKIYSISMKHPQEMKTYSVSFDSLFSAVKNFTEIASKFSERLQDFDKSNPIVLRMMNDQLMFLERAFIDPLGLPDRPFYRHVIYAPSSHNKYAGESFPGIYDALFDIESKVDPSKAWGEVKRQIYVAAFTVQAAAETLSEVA
In the case of “Ac-(D-E)VCWDCFM(Nle)EDGTCA-Sar6-(D-K) [21-31-04-T01-N009]”, the “PSMA binding (statement in words)” value is reported as “superior PSMA binding”.

For EVCWDCFMMEDGTCA [21-31-04-T01-N001], the “PSMA binding (statement in words)” value was “superior PSMA binding”.

In the case of FCSECYMMEDGTCA [21-31-11-T01-N001], the “PSMA binding (statement in words)” value is on record as “superior PSMA binding”.

Regarding LCMECYMMEDGTCA [21-31-12-T01-N001], the “PSMA binding (statement in words)” value is on record as “superior PSMA binding”.

(Values after patent publication US12377155B2, “Bicyclic peptide ligands specific for PSMA” (BicycleRD Limited, priority 2018, dated 2025).)
